Reference: publication PMC12028158, “Synthesis and In Vitro Evaluation of the Anticancer Effect of Novel Phosphonium Vindoline Derivatives” (International Journal of Molecular Sciences, 2025)
Where two headings read alike, the source gives them in different places.

How the values were obtained:
Format in all cases: cell-based
[1] = test system: MOLT-4; experiment: NCI60 five-dose screen; details: Homo sapiens, MOLT-4
[2] = test system: A549/ATCC; experiment: NCI60 five-dose screen; details: Homo sapiens, A549
[3] = test system: NCI-H226; experiment: NCI60 five-dose screen; details: Homo sapiens, NCI-H226
[4] = test system: HCT-116; experiment: NCI60 five-dose screen; details: Homo sapiens, HCT-116
[5] = test system: HCT-15; experiment: NCI60 five-dose screen; details: Homo sapiens, HCT-15
[6] = test system: HT29; experiment: NCI60 five-dose screen; details: Homo sapiens, HT-29
[7] = test system: SF-295; experiment: NCI60 five-dose screen; details: Homo sapiens, SF-295
[8] = test system: SNB-19; experiment: NCI60 five-dose screen; details: Homo sapiens, SNB-19
[9] = test system: M14; experiment: NCI60 five-dose screen; details: Homo sapiens, M14
[10] = test system: MDA-MB-435; experiment: NCI60 five-dose screen; details: Homo sapiens, MDA-MB-435
[11] = test system: SK-MEL-28; experiment: NCI60 five-dose screen; details: Homo sapiens, SK-MEL-28
[12] = test system: SK-MEL-5; experiment: NCI60 five-dose screen; details: Homo sapiens, SK-MEL-5
[13] = test system: UACC-257; experiment: NCI60 five-dose screen; details: Homo sapiens, UACC-257
[14] = test system: UACC-62; experiment: NCI60 five-dose screen; details: Homo sapiens, UACC-62
[15] = test system: OVCAR-3; experiment: NCI60 five-dose screen; details: Homo sapiens, OVCAR-3
[16] = test system: OVCAR-4; experiment: NCI60 five-dose screen; details: Homo sapiens, OVCAR-4
[17] = test system: OVCAR-8; experiment: NCI60 five-dose screen; details: Homo sapiens, OVCAR-8
[18] = test system: SK-OV-3; experiment: NCI60 five-dose screen; details: Homo sapiens, SK-OV-3
[19] = test system: 786-0; experiment: NCI60 five-dose screen; details: Homo sapiens, 786-0
[20] = test system: A498; experiment: NCI60 five-dose screen; details: Homo sapiens, A498
[21] = test system: SN12C; experiment: NCI60 five-dose screen; details: Homo sapiens
[22] = test system: MCF7; experiment: NCI60 five-dose screen; details: Homo sapiens, MCF7
[23] = test system: BT-549; experiment: NCI60 five-dose screen; details: Homo sapiens, BT-549
[24] = test system: Non-small Cell Lung Cancer panel; experiment: NCI60 five-dose screen, panel mean; details: Homo sapiens
[25] = test system: Colon Cancer panel; experiment: NCI60 five-dose screen, panel mean; details: Homo sapiens
[26] = test system: CNS Cancer panel; experiment: NCI60 five-dose screen, panel mean; details: Homo sapiens
[27] = test system: Ovarian Cancer panel; experiment: NCI60 five-dose screen, panel mean; details: Homo sapiens
[28] = test system: Renal Cancer panel; experiment: NCI60 five-dose screen, panel mean; details: Homo sapiens
[29] = test system: MOLT-4; experiment: NCI60 one-dose screen; details: Homo sapiens, MOLT-4, read-out: Growth percent
[30] = test system: NCI-H226; experiment: NCI60 one-dose screen; details: Homo sapiens, NCI-H226, read-out: Growth percent
[31] = test system: NCI-H23; experiment: NCI60 one-dose screen; details: Homo sapiens, NCI-H23, read-out: Growth percent
[32] = test system: COLO 205; experiment: NCI60 one-dose screen; details: Homo sapiens, COLO 205, read-out: Growth percent
[33] = test system: HCC-2998; experiment: NCI60 one-dose screen; details: Homo sapiens, HCC 2998, read-out: Growth percent
[34] = test system: HCT-15; experiment: NCI60 one-dose screen; details: Homo sapiens, HCT-15, read-out: Growth percent
[35] = test system: HT29; experiment: NCI60 one-dose screen; details: Homo sapiens, HT-29, read-out: Growth percent
[36] = test system: KM12; experiment: NCI60 one-dose screen; details: Homo sapiens, KM12, read-out: Growth percent
[37] = test system: SW-620; experiment: NCI60 one-dose screen; details: Homo sapiens, SW-620, read-out: Growth percent
[38] = test system: SF-268; experiment: NCI60 one-dose screen; details: Homo sapiens, SF-268, read-out: Growth percent
[39] = test system: SF-295; experiment: NCI60 one-dose screen; details: Homo sapiens, SF-295, read-out: Growth percent
[40] = test system: M14; experiment: NCI60 one-dose screen; details: Homo sapiens, M14, read-out: Growth percent
[41] = test system: OVCAR-8; experiment: NCI60 one-dose screen; details: Homo sapiens, OVCAR-8, read-out: Growth percent
[42] = test system: CAKI-1; experiment: NCI60 one-dose screen; details: Homo sapiens, CAKI-1, read-out: Growth percent
[43] = test system: RXF 393; experiment: NCI60 one-dose screen; details: Homo sapiens, RXF 393, read-out: Growth percent
[44] = test system: TK-10; experiment: NCI60 one-dose screen; details: Homo sapiens, TK-10, read-out: Growth percent
[45] = test system: PC-3; experiment: NCI60 one-dose screen; details: Homo sapiens, PC-3, read-out: Growth percent
[46] = test system: BT-549; experiment: NCI60 one-dose screen; details: Homo sapiens, BT-549, read-out: Growth percent
[47] = test system: MDA-MB-468; experiment: NCI60 one-dose screen; details: Homo sapiens, MDA-MB-468, read-out: Growth percent

Compound: CC[C@]12C=CCN3CC[C@@]4(c5ccc(OC)cc5N(C)[C@H]4[C@@](O)(C(=O)OC)[C@@H]1OC(=O)CCC[P+](c1ccccc1)(c1ccccc1)c1ccccc1OC)[C@@H]32 [9f]
- GI50 [1]: 0.419 µM
- GI50 [2]: 0.945 µM
- GI50 [3]: 1.21 µM
- GI50 [4]: 0.383 µM
- GI50 [5]: 9.07 µM
- GI50 [6]: 0.356 µM
- GI50 [7]: 1.83 µM
- GI50 [8]: 0.313 µM
- GI50 [9]: 1.06 µM
- GI50 [10]: 0.299 µM
- GI50 [11]: 0.506 µM
- GI50 [12]: 0.777 µM
- GI50 [13]: 0.406 µM
- GI50 [14]: 0.286 µM
- GI50 [15]: 0.297 µM
- GI50 [16]: 0.54 µM
- GI50 [17]: 0.79 µM
- GI50 [18]: 0.411 µM
- GI50 [19]: 1.98 µM
- GI50 [20]: 2.65 µM
- GI50 [21]: 0.325 µM
- GI50 [22]: 0.288 µM
- GI50 [23]: 0.262 µM
- GI50 ([24]; read-out: Mean GI50): 1.05 µM
- GI50 ([25]; read-out: Mean GI50): 1.61 µM
- GI50 ([26]; read-out: Mean GI50): 0.57 µM
- GI50 ([27]; read-out: Mean GI50): 4.2 µM
- GI50 ([28]; read-out: Mean GI50): 3.08 µM
- activity at 10 µM [29]: 21.2%
- activity at 10 µM [30]: -38.6%
- activity at 10 µM [31]: -57.8%
- activity at 10 µM [32]: -90.7%
- activity at 10 µM [33]: -93.1%
- activity at 10 µM [34]: 30.7%
- activity at 10 µM [35]: -57.8%
- activity at 10 µM [36]: -93.4%
- activity at 10 µM [37]: -48.7%
- activity at 10 µM [38]: -76.1%
- activity at 10 µM [39]: -42.3%
- activity at 10 µM [40]: -82.9%
- activity at 10 µM [41]: 6.9%
- activity at 10 µM [42]: -40.2%
- activity at 10 µM [43]: -83.6%
- activity at 10 µM [44]: -88.5%
- activity at 10 µM [45]: 4.74%
- activity at 10 µM [46]: -64.2%
- activity at 10 µM [47]: -84.6%

Compound: CC[C@]12C=CCN3CC[C@@]4(c5ccc(OC)cc5N(C)[C@H]4[C@@](O)(C(=O)OC)[C@@H]1OC(=O)CCCC[P+](c1ccc(C)cc1)(c1ccc(C)cc1)c1ccc(C)cc1)[C@@H]32 [10a]
- GI50 [1]: 0.611 µM
- GI50 [2]: 0.819 µM
- GI50 [3]: 1.43 µM
- GI50 [4]: 0.452 µM
- GI50 [5]: 2.17 µM
- GI50 [6]: 0.358 µM
- GI50 [7]: 1.62 µM
- GI50 [8]: 0.96 µM
- GI50 [9]: 1.11 µM
- GI50 [10]: 0.678 µM
- GI50 [11]: 0.485 µM
- GI50 [12]: 1.57 µM
- GI50 [13]: 0.817 µM
- GI50 [14]: 0.705 µM
- GI50 [15]: 0.604 µM
- GI50 [16]: 1.09 µM
- GI50 [17]: 1.13 µM
- GI50 [18]: 1.04 µM
- GI50 [19]: 1.64 µM
- GI50 [20]: 2.17 µM
- GI50 [21]: 0.619 µM
- GI50 [22]: 0.325 µM
- GI50 [23]: 0.763 µM
- GI50 ([24]; read-out: GI50 Mean): 1.07 µM
- GI50 ([25]; read-out: GI50 Mean): 0.72 µM
- GI50 ([26]; read-out: GI50 Mean): 1.09 µM
- GI50 ([27]; read-out: GI50 Mean): 2.54 µM
- GI50 ([28]; read-out: GI50 Mean): 2.34 µM
- activity at 10 µM [29]: -25%
- activity at 10 µM [30]: -78.6%
- activity at 10 µM [31]: -92.4%
- activity at 10 µM [32]: -64.1%
- activity at 10 µM [33]: -85.8%
- activity at 10 µM [34]: -90.1%
- activity at 10 µM [35]: -81.8%
- activity at 10 µM [36]: -73.6%
- activity at 10 µM [37]: -88.2%
- activity at 10 µM [38]: -61.1%
- activity at 10 µM [39]: -91.8%
- activity at 10 µM [40]: -88.3%
- activity at 10 µM [41]: -86.6%
- activity at 10 µM [42]: -95.2%
- activity at 10 µM [43]: -87.6%
- activity at 10 µM [44]: -91.2%
- activity at 10 µM [45]: -73.2%
- activity at 10 µM [46]: -97%
- activity at 10 µM [47]: -92.5%

Compound: CC[C@]12C=CCN3CC[C@@]4(c5ccc(OC)cc5N(C)[C@H]4[C@@](O)(C(=O)OC)[C@@H]1OC(=O)CCCC[P+](c1ccc(OC)cc1)(c1ccc(OC)cc1)c1ccc(OC)cc1)[C@@H]32 [10b]
- GI50 [1]: 1.18 µM
- GI50 [2]: 1.65 µM
- GI50 [3]: 2.03 µM
- GI50 [4]: 1.3 µM
- GI50 [5]: 8.79 µM
- GI50 [6]: 0.511 µM
- GI50 [7]: 1.97 µM
- GI50 [8]: 0.484 µM
- GI50 [9]: 1.2 µM
- GI50 [10]: 0.521 µM
- GI50 [11]: 0.486 µM
- GI50 [12]: 1.6 µM
- GI50 [13]: 0.792 µM
- GI50 [14]: 0.963 µM
- GI50 [15]: 0.634 µM
- GI50 [16]: 1.57 µM
- GI50 [17]: 1.99 µM
- GI50 [18]: 1.4 µM
- GI50 [19]: 2.59 µM
- GI50 [20]: 2.93 µM
- GI50 [21]: 1.18 µM
- GI50 [22]: 0.105 µM
- GI50 [23]: 1.25 µM
- GI50 ([24]; read-out: GI50 Mean): 1.36 µM
- GI50 ([25]; read-out: GI50 Mean): 1.88 µM
- GI50 ([26]; read-out: GI50 Mean): 1.17 µM
- GI50 ([27]; read-out: GI50 Mean): 4.11 µM
- GI50 ([28]; read-out: GI50 Mean): 4.34 µM
- activity at 10 µM [29]: -26.2%
- activity at 10 µM [30]: -63.6%
- activity at 10 µM [31]: -90.7%
- activity at 10 µM [32]: -64.9%
- activity at 10 µM [33]: -88.4%
- activity at 10 µM [34]: -5.69%
- activity at 10 µM [35]: -63.1%
- activity at 10 µM [36]: -68.8%
- activity at 10 µM [37]: -88.7%
- activity at 10 µM [38]: -38.1%
- activity at 10 µM [39]: -93.6%
- activity at 10 µM [40]: -89.8%
- activity at 10 µM [41]: -90.2%
- activity at 10 µM [42]: -78.5%
- activity at 10 µM [43]: -90.4%
- activity at 10 µM [44]: -88.2%
- activity at 10 µM [45]: -37.2%
- activity at 10 µM [46]: -96.7%
- activity at 10 µM [47]: -92.7%
